Like-named read-outs stand apart in the source and are kept apart here.
Tests used:
[1] = tested on: 4405 melanoma cell line; assay: HMC combination with paclitaxel (synergy); format: cell-based; settings: for IC50: Table 10, single agent
Protocol: (§1) IC50 values were determined for each cell line. Cells were seeded in 96-well plates at an appropriate cell density as determined from growth kinetics analysis and cultured for 5 days in the absence and presence of the test compounds. Cell proliferation was assessed after the addition of 20 μl of 3-4,5 dimethylthiazol-2,5-diphenyl tetrazolium bromide (MTT, 2.5 mg/ml in PBS, Sigma) for 3-4 hrs at 37° C. according to manufacturer's instructions. IC50 values were calculated from semi-log plots of % of control proliferation on the y-axis against log dose on the x-axis.
(§2) 3-D model analysis of the cytotoxic interaction between drug A and drug B enables the representation of predicted inhibitory effect of two drugs in combination in 3 dimensions to reveal actual regions of synergy or antagonism. The 3D synergy plots are based on a theory of “Theretical Additivity” (TA) as outlined by Kanzawa et al (Int. J. Cancer 71, 311-319 (1997)). Theoretical Additivity was calculated from the cytotoxicities of drug A and drug B as monotherapies using the following formula which assumes the drugs are mutually exclusive inhibitors: […]
(§3) The TA is calculated for each combination of drug concentrations and subtracted from the observed experimental effect for each combination to give a measurement of synergisitic action.
HMC synergy with paclitaxel was assessed either in combination over 5 days exposure or in sequence (HMC→paclitaxel) against the 4405 melanoma cell line. It was difficult to assess for synergisitic toxicity using a change in IC50 as a measure of synergy due to HMC toxicity as monotherapy (Table 10). […] Evidence of synergy using the HMC-paclitaxel combination was further assessed using the HMC→paclitaxel sequence (24 hr exposure to each compound in sequence) against the melanoma cell line 4405. Using change in IC50 to assess for synergy it was noted that HMC at concentrations of 2 μM markedly chemosensitised the 4405 cells to paclitaxel by >1000 fold (Table 10). HMC-induced chemosensitisation of […] cells to paclitaxel was confirmed using 3D analysis of the data.

[2] = tested on: IGR3 melanoma cells (Trail-resistant); assay: Apoptosis incidence in melanoma cells; format: cell-based
[3] = tested on: Neonatal foreskin fibroblasts (NFF); assay: Proliferation assay (MTT), normal cell toxicity; format: cell-based, Human; settings: Homo sapiens, Fibroblast, read-out: IC50
Protocol: (§4) The normal cell line NFF (neonatal foreskin fibroblasts) was a sift from Dr. Peter Parsons (Queensland Institute of Medical Research). RK (rabbit kidney) cells were obtained from Miller Whalley (Macquarie University). Both cell lines were cultured in RPMI supplemented with 10% FCS(CSL, Australia), penicillin (100 U/ml), streptomycin ([…]), L-glutamine (2 mM) and sodium bicarbonate (1.2 g/L), and cultured at 37° C. in a humidified atmosphere of 5% CO2.
as §1

[4] = tested on: SKOV-3 ovarian cancer cell line; assay: Proliferation assay (MTT); format: cell-based; settings: Homo sapiens, SK-OV-3; Table 2.1; Ovarian SKOV-3; read-out: IC50
[5] = tested on: MEL-RM melanoma cells (TRAIL sensitive); assay: Apoptosis incidence in melanoma cells; format: cell-based
[6] = tested on: rabbit kidney cells (RK); assay: Proliferation assay (MTT), normal cell toxicity; format: cell-based; settings: Oryctolagus cuniculus; rabbit kidney cells; read-out: IC50
Protocol: as §4, §1

[7] = tested on: HPAC (CRL-2119) pancreatic cancer cell line; assay: Proliferation assay (MTT); format: cell-based, human; settings: Homo sapiens, HPAC, read-out: IC50
[8] = HMC and HHC pharmacokinetics, oral, human patients; format: in vivo; settings: plasma
Protocol: Human patients were orally dosed with 200 mg of either HMC or HHC. For each challenged patient, blood was taken over a 6 hour period and the results averaged to characterise the plasma pharmacokinetics.

[9] = tested on: Mel-RM melanoma cell line; assay: HMC combination with gemcitabine (synergy); format: cell-based; settings: for IC50: Table 9, single agent
Protocol: as §1, §2, §3
HMC synergy with gemcitabine was assessed either in combination over 5 days exposure or in sequence (HMC→gemcitabine) against the Mel-RM melanoma cell line. It was difficult to assess for synergisitic toxicity using a change in IC50 as a measure of synergy due to HMC toxicity as monotherapy (Table 9). […] Evidence of synergy using the HMC-gemcitabine combination was further assessed using the HMC→gemcitabine sequence (24 hr exposure to each compound in sequence) against the melanoma cell line Mel-RM. Using change in IC50 to assess for synergy it was noted that HMC at concentrations of 2 and 1 μM markedly chemosensitised the Mel-RM cells to gemcitabine by >1000 fold. HMC-induced chemosensitisation of Mel-RM cells to gemcitabine was confirmed using 3D analysis of the data.

[10] = tested on: Mel-AT melanoma cells (Trail +ve/Caspase 8 −ve); assay: Apoptosis incidence in melanoma cells; format: cell-based
[11] = 120 h, 5 days exposure, read-out: IC50, Combined (monotherapy)
[12] = 24 hr exposure, read-out: IC50, 24 hr (monotherapy)
[13] = human, po, humans dosed orally with 200 mg

COc1ccc(C2c3ccc(O)cc3OCC2c2ccc(O)cc2)cc1 (stereo not drawn) [Compound 1, 3-(4-hydroxyphenyl)-4-(4-methoxyphenyl)chroman-7-ol]
reduction in IC50 in the combination experiment vs paclitaxel monotherapy ([1]; 5-day combination): 30 fold | IC50 [1, 11]: 1.26 µM | chemosensitisation of 4405 cells to paclitaxel (change in IC50) ([1]; HMC 2 μM, HMC→paclitaxel sequence): > 1000 fold | Change Factor (HMC first) ([1]; Paclitaxel block, HMC 1 uM 24 hr then paclitaxel 24 hr): 11.00 | Change Factor (HMC first) ([1]; Paclitaxel block, HMC 2 uM 24 hr then paclitaxel 24 hr): 106633.75 | Change Factor (Combined) ([1]; Paclitaxel block, with HMC 1 uM, 5-day combination): 30.36 | Change Factor (Combined) ([1]; Paclitaxel block, with HMC 2 uM, 5-day combination): ?HMC effect | IC50 [1, 12]: 55.5 µM | Change Factor (HMC first) ([1]; upper block of Table 10, HMC 2 uM first, sequence): −1.035 | Change Factor (Combined) ([1]; upper block of Table 10, HMC 2 uM, 5-day combination): 5964.400 | Percent Apoptosis ([2]; 24 hr exposure, 1 uM): 8% | Percent Apoptosis ([2]; 24 hr exposure, 2 uM): 11% | Percent Apoptosis ([2]; 24 hr exposure, 4 uM): 39% | Percent Apoptosis ([2]; 24 hr exposure, 8 uM): 41% | Percent Apoptosis ([2]; 24 hr exposure, 20 uM): 32% | Percent Apoptosis ([2]; 48 hr exposure, 1 uM): 1% | Percent Apoptosis ([2]; 48 hr exposure, 2 uM): 9% | Percent Apoptosis ([2]; 48 hr exposure, 4 uM): 21% | Percent Apoptosis ([2]; 48 hr exposure, 8 uM): 38% | Percent Apoptosis ([2]; 48 hr exposure, 20 uM): 38% | IC50 ([3]; Table 1, Neonatal Foreskin Fibroblasts (Human, NFF)): 86.1 ± 7.6 µM | IC50 ([3]; NFF): 86 µM | IC50 [4]: 2.26 µM | Percent Apoptosis ([5]; 24 hr exposure, 1 uM): 0% | Percent Apoptosis ([5]; 24 hr exposure, 2 uM): 8% | Percent Apoptosis ([5]; 24 hr exposure, 4 uM): 25% | Percent Apoptosis ([5]; 24 hr exposure, 8 uM): 39% | Percent Apoptosis ([5]; 24 hr exposure, 20 uM): 38% | Percent Apoptosis ([5]; 48 hr exposure, 1 uM): 1.5% | Percent Apoptosis ([5]; 48 hr exposure, 2 uM): 8% | Percent Apoptosis ([5]; 48 hr exposure, 4 uM): 22% | Percent Apoptosis ([5]; 48 hr exposure, 8 uM): 38% | Percent Apoptosis ([5]; 48 hr exposure, 20 uM): 30% | IC50 [6]: 61 µM | IC50 ([7]; Table 2.1, Pancreatic CRL-2119): 14.1 ± 1.16 µM | IC50 ([7]; Table 2.2, Pancreatic HPAC): 2.8 ± 0.9 µM | Cmax [8, 13]: 513 ng/mL | Tmax [8, 13]: 2.17 h | t1/2 ([8]; humans dosed orally with 200 mg): 3.99 h | half-life ([8]; human patients, 200 mg oral, initial results): 3.99 h | IC50 [9, 11]: 0.51 µM | Change Factor (HMC first) ([9]; Gemcitabine block, HMC 1 uM 24 hr then gemcitabine 24 hr): >1000 | Change Factor (HMC first) ([9]; Gemcitabine block, HMC 2 uM 24 hr then gemcitabine 24 hr): >100 | chemosensitisation of Mel-RM cells to gemcitabine (change in IC50) ([9]; HMC 2 and 1 μM, HMC→gemcitabine sequence): > 1000 fold | IC50 [9, 12]: 27.8 µM | Change Factor (HMC first) ([9]; upper block of Table 9, HMC 1 uM first, sequence): >1000 | Change Factor (HMC first) ([9]; upper block of Table 9, HMC 2 uM first, sequence): >1000 | Percent Apoptosis ([10]; 24 hr exposure, 1 uM): 0% | Percent Apoptosis ([10]; 24 hr exposure, 2 uM): 6% | Percent Apoptosis ([10]; 24 hr exposure, 4 uM): 9% | Percent Apoptosis ([10]; 24 hr exposure, 8 uM): 23% | Percent Apoptosis ([10]; 24 hr exposure, 20 uM): 24% | Percent Apoptosis ([10]; 48 hr exposure, 1 uM): 1% | Percent Apoptosis ([10]; 48 hr exposure, 2 uM): 7% | Percent Apoptosis ([10]; 48 hr exposure, 4 uM): 25% | Percent Apoptosis ([10]; 48 hr exposure, 8 uM): 59% | Percent Apoptosis ([10]; 48 hr exposure, 20 uM): 35%

Source: patent US8163795B2, “Chroman derivatives, medicaments and use in therapy” (Marshall Edwards, Inc., priority 2004, dated 2012)
